Laboratory results reported in patent EP1247803A2, “Indolinone compounds suitable for modulation of protein kinases” (Sugen, Inc., priority 1996, dated 1998).

Columns and labels:
MET = MET biochemical kinase assay; set-up: species or system human; concentration or dose not given beside the values
Summary of the method: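 In this format, tyrosine phosphorylation of plate-captured human MET is followed in vitro after compound addition in ATP/divalent-cation buffer, detected by anti-phosphotyrosine-HRP with TMB substrate.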

EGFR = target: T1, EGFR (Homo sapiens, UniProt P00533); assay: EGFR ELISA assay (in vitro kinase activity, EGFR captured from A431 cell lysate); assay type: biochemical; set-up: concentration or dose not given beside the values
T1 construct: Add 7 ug A431 cell lysate per well (EGFR source); endogenous in cells; host or cells: A431
T1 sequence (P00533 25-1210): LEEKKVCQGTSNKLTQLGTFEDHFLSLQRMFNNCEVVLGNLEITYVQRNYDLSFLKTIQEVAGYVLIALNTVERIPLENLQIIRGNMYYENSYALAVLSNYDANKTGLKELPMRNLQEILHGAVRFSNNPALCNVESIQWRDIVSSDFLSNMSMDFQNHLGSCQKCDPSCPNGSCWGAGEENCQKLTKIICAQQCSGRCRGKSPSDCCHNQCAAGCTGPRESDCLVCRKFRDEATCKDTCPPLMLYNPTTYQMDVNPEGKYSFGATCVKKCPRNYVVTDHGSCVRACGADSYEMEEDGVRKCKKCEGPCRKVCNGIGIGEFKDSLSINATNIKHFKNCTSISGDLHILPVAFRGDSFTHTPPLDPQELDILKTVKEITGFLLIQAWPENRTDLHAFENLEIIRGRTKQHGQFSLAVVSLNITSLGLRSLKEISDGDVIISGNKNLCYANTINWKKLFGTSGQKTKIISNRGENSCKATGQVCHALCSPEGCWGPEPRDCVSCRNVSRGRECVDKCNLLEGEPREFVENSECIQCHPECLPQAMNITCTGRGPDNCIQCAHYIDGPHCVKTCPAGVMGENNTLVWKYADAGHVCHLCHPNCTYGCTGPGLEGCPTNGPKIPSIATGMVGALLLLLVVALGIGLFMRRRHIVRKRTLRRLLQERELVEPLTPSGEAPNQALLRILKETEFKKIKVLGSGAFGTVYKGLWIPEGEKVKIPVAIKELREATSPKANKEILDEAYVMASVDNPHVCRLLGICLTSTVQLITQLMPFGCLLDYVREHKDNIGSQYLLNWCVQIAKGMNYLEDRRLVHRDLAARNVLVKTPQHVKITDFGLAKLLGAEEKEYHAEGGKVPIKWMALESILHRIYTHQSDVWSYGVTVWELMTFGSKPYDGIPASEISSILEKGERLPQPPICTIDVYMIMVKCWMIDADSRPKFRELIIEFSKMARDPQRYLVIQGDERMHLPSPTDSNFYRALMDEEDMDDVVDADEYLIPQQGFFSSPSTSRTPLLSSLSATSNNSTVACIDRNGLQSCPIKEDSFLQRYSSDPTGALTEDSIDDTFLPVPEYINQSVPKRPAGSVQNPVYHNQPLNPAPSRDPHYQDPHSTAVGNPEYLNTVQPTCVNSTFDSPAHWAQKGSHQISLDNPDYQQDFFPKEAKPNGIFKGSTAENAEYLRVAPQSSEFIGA
Summary of the method: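 Receptor autophosphorylation was read by ELISA: anti-phosphotyrosine serum and an HRP-linked secondary with ABTS substrate, absorbance at 410 nm (reference 630 nm). The reaction ran 5 min with 3 µM ATP and 5 mM MnCl2 and was quenched by 20 mM EDTA. Compounds were first incubated 30 min with antibody-captured EGFR from A431 cell lysate.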

Row | Structure (SMILES) | Met Kinase % Inhibition (MET) | Biochem EGFR %Inhibition (EGFR)
1 | CCOc1ccccc1C=C1C(=O)Nc2ccc(I)cc21 [10717/B02] | 87.5% | 31.7%
2 | O=C1Nc2ccc(I)cc2C1=Cc1cccs1 [10717/B03] | 90.5% | 7.3%
3 | Cn1cccc1C=C1C(=O)Nc2ccc(I)cc21 [10717/B04] | 70.0% | 10.3%
4 | O=C1Nc2ccc(I)cc2C1=Cc1ccc(F)cc1 [10717/B05] | 87.4% | 31.7%
5 | O=C1Nc2ccc(I)cc2C1=Cc1c[nH]c2ccccc12 [10717/B06] | 89.5% | -30.8%
6 | CCOC(=O)c1c(C)[nH]c(C=C2C(=O)Nc3ccc(S(=O)(=O)N4CCOCC4)cc32)c1C [10718/F02] | 66.7% | 17.8%
7 | COc1cc(Br)c(O)c(C=C2C(=O)Nc3ccc(S(=O)(=O)N4CCOCC4)cc32)c1 [10718/F03] | 87.9% | 22.5%
8 | O=C1Nc2ccc(S(=O)(=O)N3CCOCC3)cc2C1=Cc1ccc2ccccc2c1O [10718/F04] | 78.1% | 1.2%
9 | CCOC(=O)CCc1c(C(=O)OCC)[nH]c(C=C2C(=O)Nc3ccc(S(=O)(=O)N4CCOCC4)cc32)c1CC(=O)OCC [10718/F05] | 53.7% | -4.9%
10 | CCOC(=O)c1cc(C=C2C(=O)Nc3ccc(S(=O)(=O)N4CCOCC4)cc32)oc1C [10718/F06] | 42.5% | -9.1%
11 | COC(=O)c1[nH]c(C)c(C=C2C(=O)Nc3ccc(S(=O)(=O)N4CCOCC4)cc32)c1C(=O)OC [10718/F07] | 67.9% | -6.3%
12 | O=C1Nc2ccc(S(=O)(=O)N3CCOCC3)cc2C1=Cc1ccc(Cl)c([N+](=O)[O-])c1 [10718/F08] | 28.4% | -8.7%
13 | Cc1c(O)ccc(C=C2C(=O)Nc3ccc(S(=O)(=O)N4CCOCC4)cc32)c1O [10718/F09] | 52.7% | -9.5%
14 | O=C1Nc2ccc(S(=O)(=O)N3CCOCC3)cc2C1=Cc1ccco1 [10718/F10] | 23.7% | -12.0%
15 | O=C1Nc2ccc(S(=O)(=O)N3CCOCC3)cc2C1=Cc1ccc([N+](=O)[O-])o1 [10718/F11] | 31.3% | -3.9%
16 | CCOC(=O)c1c(C)[nH]c(C=C2C(=O)Nc3ccc(CCCl)cc32)c1C [10718/G02] | 67.7% | 49.2%
17 | COc1cc(Br)c(O)c(C=C2C(=O)Nc3ccc(CCCl)cc32)c1 [10718/G03] | 77.9% | 57.3%
18 | O=C1Nc2ccc(CCCl)cc2C1=Cc1ccc2ccccc2c1O [10718/G04] | 78.1% | 15.8%
19 | CCOC(=O)CCc1c(C(=O)OCC)[nH]c(C=C2C(=O)Nc3ccc(CCCl)cc32)c1CC(=O)OCC [10718/G05] | 60.3% | 2.8%
20 | CCOC(=O)c1cc(C=C2C(=O)Nc3ccc(CCCl)cc32)oc1C [10718/G06] | 61.0% | -18.7%
21 | COC(=O)c1[nH]c(C)c(C=C2C(=O)Nc3ccc(CCCl)cc32)c1C(=O)OC [10718/G07] | 52.0% | -21.3%
22 | O=C1Nc2ccc(CCCl)cc2C1=Cc1ccc(Cl)c([N+](=O)[O-])c1 [10718/G08] | 17.5% | -8.3%
23 | Cc1c(O)ccc(C=C2C(=O)Nc3ccc(CCCl)cc32)c1O [10718/G09] | 27.0% | -15.4%
24 | O=C1Nc2ccc(CCCl)cc2C1=Cc1ccco1 [10718/G10] | 10.8% | -7.5%
25 | O=C1Nc2ccc(CCCl)cc2C1=Cc1ccc([N+](=O)[O-])o1 [10718/G11] | 3.0% | -4.9%
26 | CCOc1ccc(C=C2C(=O)Nc3c(Br)cc(Br)cc32)cc1OC [10719/A02] | 40.9% | 43.0%
27 | O=C1Nc2c(Br)cc(Br)cc2C1=Cc1ccc(O)c(O)c1 [10719/A03] | 84.1% | 67.7%

Row | Structure (SMILES) | Met Kinase % Inhibition (MET) | Biochem EGFR %Inhibition (EGFR)
28 | COc1ccc(C=C2C(=O)Nc3c(Br)cc(Br)cc32)c(OC)c1 [10719/A04] | 22.9% | 43.7%
29 | CCc1c(C)[nH]c(C=C2C(=O)Nc3c(Br)cc(Br)cc32)c1C [10719/A05] | 39.6% | 23.1%
30 | COc1cc(OC)c(C=C2C(=O)Nc3c(Br)cc(Br)cc32)c(OC)c1 [10719/A06] | -7.0% | 18.2%
31 | O=C1Nc2c(Br)cc(Br)cc2C1=Cc1ccc(O)cc1 [10719/A07] | 68.1% | 15.5%
32 | CN(C)c1ccc(C=C2C(=O)Nc3c(Br)cc(Br)cc32)cc1 [10719/A08] | 75.5% | 47.3%
33 | O=C1Nc2c(Br)cc(Br)cc2C1=Cc1ccc(F)cc1Cl [10719/A09] | 47.0% | 2.2%
34 | O=C1Nc2c(Br)cc(Br)cc2C1=Cc1cccc([N+](=O)[O-])c1 [10719/A10] | 13.4% | 8.2%
35 | O=C1Nc2c(Br)cc(Br)cc2C1=Cc1ccc(F)cc1C(F)(F)F [10719/A11] | 34.9% | 10.5%
36 | CCOc1ccc(C=C2C(=O)Nc3ccc(I)cc32)cc1OC [10719/B02] | 47.0% | 29.0%
37 | O=C1Nc2ccc(I)cc2C1=Cc1ccc(O)c(O)c1 [10719/B03] | 85.8% | 59.5%
38 | COc1ccc(C=C2C(=O)Nc3ccc(I)cc32)c(OC)c1 [10719/B04] | 38.4% | 29.9%
39 | CCc1c(C)[nH]c(C=C2C(=O)Nc3ccc(I)cc32)c1C [10719/B05] | 33.6% | 35.9%
40 | COc1cc(OC)c(C=C2C(=O)Nc3ccc(I)cc32)c(OC)c1 [10719/B06] | 22.5% | -0.5%
41 | O=C1Nc2ccc(I)cc2C1=Cc1ccc(O)cc1 [10719/B07] | 52.2% | 23.7%
42 | CN(C)c1ccc(C=C2C(=O)Nc3ccc(I)cc32)cc1 [10719/B08] | 33.2% | 42.3%
43 | O=C1Nc2ccc(I)cc2C1=Cc1ccc(F)cc1Cl [10719/B09] | 23.5% | -17.7%
44 | O=C1Nc2ccc(I)cc2C1=Cc1cccc([N+](=O)[O-])c1 [10719/B10] | 53.4% | -1.2%
45 | O=C1Nc2ccc(I)cc2C1=Cc1ccc(F)cc1C(F)(F)F [10719/B11] | 36.5% | -23.9%
46 | CCOc1ccc(C=C2C(=O)Nc3ccc(Br)c(C)c32)cc1OC [10719/C02] | 41.3% | 10.2%
47 | Cc1c(Br)ccc2c1C(=Cc1ccc(O)c(O)c1)C(=O)N2 [10719/C03] | 69.1% | 60.6%
48 | COc1ccc(C=C2C(=O)Nc3ccc(Br)c(C)c32)c(OC)c1 [10719/C04] | 14.7% | 14.4%
49 | CCc1c(C)[nH]c(C=C2C(=O)Nc3ccc(Br)c(C)c32)c1C [10719/C05] | 35.5% | 27.4%
50 | COc1cc(OC)c(C=C2C(=O)Nc3ccc(Br)c(C)c32)c(OC)c1 [10719/C06] | 18.4% | -14.3%
51 | Cc1c(Br)ccc2c1C(=Cc1ccc(O)cc1)C(=O)N2 [10719/C07] | 7.7% | 14.4%
52 | Cc1c(Br)ccc2c1C(=Cc1ccc(N(C)C)cc1)C(=O)N2 [10719/C08] | 57.5% | -10.2%
53 | Cc1c(Br)ccc2c1C(=Cc1ccc(F)cc1Cl)C(=O)N2 [10719/C09] | 8.9% | -0.1%
